According to ChEMBL document CHEMBL5241107, “Discovery of an eIF4A Inhibitor with a Novel Mechanism of Action” (J Med Chem, 2021):
Active and inactive are the calls of the source. The rule behind the calls is not given here.

Columns and labels:
[1] = target: Eukaryotic initiation factor 4A-I (Homo sapiens, UniProt P60842, T158V); test: Inhibition of human recombinant N-terminal His6-tagged eIF4A T158V mutant expressed in Escherichia coli BL21 CodonPlus cells using ATP and yeast RNA as substrate preincubated with enzyme for 20 mins followed by susbtrate addition and measured after 4 hrs by Malachite green ATPase assay
Eukaryotic initiation factor 4A-I (Homo sapiens, UniProt P60842, T158V), sequence (P60842 2-406 T158V limits assumed): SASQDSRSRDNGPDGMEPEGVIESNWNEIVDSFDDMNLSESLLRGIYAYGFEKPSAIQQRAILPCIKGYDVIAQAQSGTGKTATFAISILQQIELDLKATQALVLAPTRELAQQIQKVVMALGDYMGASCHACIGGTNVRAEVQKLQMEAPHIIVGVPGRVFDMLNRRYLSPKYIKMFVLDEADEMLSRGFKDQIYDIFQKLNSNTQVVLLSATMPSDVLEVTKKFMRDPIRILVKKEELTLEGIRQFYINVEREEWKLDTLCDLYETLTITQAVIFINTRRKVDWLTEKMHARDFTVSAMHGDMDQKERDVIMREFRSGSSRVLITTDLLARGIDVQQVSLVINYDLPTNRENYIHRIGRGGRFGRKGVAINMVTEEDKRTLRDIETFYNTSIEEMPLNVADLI

[2] = target: T1, Eukaryotic initiation factor 4A-I (Homo sapiens, UniProt P60842); test: Inhibition of helicase activity of human recombinant N-terminal His6-tagged eIF4A expressed in Escherichia coli BL21 CodonPlus cells using Cy3-labeled RNA strand and unlabeled DNA strand by native PAGE analysis
T1 sequence (P60842 whole entry): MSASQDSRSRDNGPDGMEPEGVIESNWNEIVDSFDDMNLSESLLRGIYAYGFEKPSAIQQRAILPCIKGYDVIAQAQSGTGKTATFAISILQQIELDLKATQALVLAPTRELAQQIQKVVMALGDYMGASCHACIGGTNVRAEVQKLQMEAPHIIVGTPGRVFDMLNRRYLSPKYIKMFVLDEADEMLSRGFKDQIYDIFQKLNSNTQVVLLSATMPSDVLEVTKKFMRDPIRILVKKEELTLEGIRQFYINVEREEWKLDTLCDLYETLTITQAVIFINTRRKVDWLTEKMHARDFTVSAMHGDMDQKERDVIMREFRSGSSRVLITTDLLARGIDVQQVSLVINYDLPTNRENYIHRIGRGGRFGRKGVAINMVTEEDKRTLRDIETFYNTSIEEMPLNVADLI

BJAB = test: Cytotoxicity against human BJAB cells assessed as reduction in cell viability measured after 72 hrs by CellTiter-Glo luminescent assay; assay type: functional, cell-based; details: Homo sapiens, BJAB, 72 h; read-out: EC50
[3] = target: Eukaryotic initiation factor 4A-I (Homo sapiens, UniProt P60842, R311E); test: Inhibition of human recombinant N-terminal His6-tagged eIF4A R311E mutant expressed in Escherichia coli BL21 CodonPlus cells using ATP and yeast RNA as substrate preincubated with enzyme for 20 mins followed by susbtrate addition and measured after 4 hrs by Malachite green ATPase assay
Eukaryotic initiation factor 4A-I (Homo sapiens, UniProt P60842, R311E), sequence (P60842 2-406 R311E limits assumed): as the sequence (P60842 2-406 T158V limits assumed) above, with V157T, R310E counted along it

[4] = target: Eukaryotic initiation factor 4A-I (Homo sapiens, UniProt P60842, T158A); test: Inhibition of human recombinant N-terminal His6-tagged eIF4A T158A mutant expressed in Escherichia coli BL21 CodonPlus cells using ATP and yeast RNA as substrate preincubated with enzyme for 20 mins followed by susbtrate addition and measured after 4 hrs by Malachite green ATPase assay
Eukaryotic initiation factor 4A-I (Homo sapiens, UniProt P60842, T158A), sequence (P60842 2-406 T158A limits assumed): as the sequence (P60842 2-406 T158V limits assumed) above, with V157A counted along it

[5] = target: T1, Eukaryotic initiation factor 4A-I; test: Binding affinity to eIF4A in human A549 cells assessed as increase in thermal stability of the protein incubated for 90 mins by CETSA analysis; assay type: cell-based; details: dose 0.041-10 µM
Reticulocyte [6] = test: Inhibition of IRES-dependent translation of renilla luciferase in rabbit reticulocyte lysates using bicistronic luciferase reporter [pSP/(CAG)33/FF/HCV/Ren.pA51] incubated for 90 mins by luciferase reporter gene based luminescence analysis; assay type: functional, subcellular; details: Oryctolagus cuniculus
[7] = target: T1, Eukaryotic initiation factor 4A-I; test: Displacement of MANT-ATP from human recombinant N-terminal His6-tagged eIF4A expressed in Escherichia coli BL21 CodonPlus cells at 200 uM preincubated with enzyme and yeast RNA for 20 mins followed by MANT-ATP addition for 30 mins by fluorescence polarization assay; details: time 50.0 min
[8] = target: T1, Eukaryotic initiation factor 4A-I; test: Inhibition of helicase activity of human recombinant N-terminal His6-tagged eIF4A expressed in Escherichia coli BL21 CodonPlus cells assessed as increase in double stranded signal using Cy3-labeled RNA strand and unlabeled DNA strand by native PAGE analysis
[9] = target: T1, Eukaryotic initiation factor 4A-I; test: Competitive inhibition of human recombinant N-terminal His6-tagged eIF4A expressed in Escherichia coli BL21 CodonPlus cells assessed as […] with constant Vmax of RNA using 250 uM ATP and varying concentration of yeast RNA as substrate preincubated with enzyme for 20 mins followed by substrate addition and measured after 1 to 7 hrs by Malachite green ATPase assay; details: time 80-440 min
[10] = target: Eukaryotic initiation factor 4A-I (Homo sapiens, UniProt P60842, R311K); test: Inhibition of human recombinant N-terminal His6-tagged eIF4A R311K mutant expressed in Escherichia coli BL21 CodonPlus cells using ATP and yeast RNA as substrate preincubated with enzyme for 20 mins followed by susbtrate addition and measured after 4 hrs by Malachite green ATPase assay
Eukaryotic initiation factor 4A-I (Homo sapiens, UniProt P60842, R311K), sequence (P60842 2-406 R311K limits assumed): as the sequence (P60842 2-406 T158V limits assumed) above, with V157T, R310K counted along it

[11] = target: T1, Eukaryotic initiation factor 4A-I; test: Binding affinity to human recombinant N-terminal His6-tagged eIF4A expressed in Escherichia coli BL21 CodonPlus cells assessed as increase in melting temperature at 3.13 to 50 uM incubated for 5 mins by differential scanning fluorimetry; details: dose 3.13-50 µM
[12] = target: T1, Eukaryotic initiation factor 4A-I; test: Inhibition of helicase activity of human recombinant N-terminal His6-tagged eIF4A expressed in Escherichia coli BL21 CodonPlus cells assessed as decrease in single stranded signal using Cy3-labeled RNA strand and unlabeled DNA strand by native PAGE analysis
[13] = target: Eukaryotic initiation factor 4A-I (Homo sapiens, UniProt P60842, R110E); test: Inhibition of human recombinant N-terminal His6-tagged eIF4A R110E mutant expressed in Escherichia coli BL21 CodonPlus cells using ATP and yeast RNA as substrate preincubated with enzyme for 20 mins followed by susbtrate addition and measured after 4 hrs by Malachite green ATPase assay
Eukaryotic initiation factor 4A-I (Homo sapiens, UniProt P60842, R110E), sequence (P60842 2-406 R110E limits assumed): as the sequence (P60842 2-406 T158V limits assumed) above, with R109E, V157T counted along it

[14] = target: T1, Eukaryotic initiation factor 4A-I; test: Displacement of FAM-[AG]8 from human recombinant N-terminal His6-tagged eIF4A expressed in Escherichia coli BL21 CodonPlus cells preincubated with enzyme for 20 mins followed by FAM-[AG]8 addition for 30 mins by fluorescence polarization assay; details: time 50.0 min
Reticulocyte [15] = test: Inhibition of eIF4A in rabbit reticulocyte lysate assessed as inhibition of cap-dependent translation of firefly luciferase using bicistronic luciferase reporter [pSP/(CAG)33/FF/HCV/Ren.pA51] incubated for 90 mins by luciferase reporter gene based luminescence analysis; assay type: subcellular; details: Oryctolagus cuniculus
[16] = target: Eukaryotic initiation factor 4A-I (Homo sapiens, UniProt P60842, R110M); test: Inhibition of human recombinant N-terminal His6-tagged eIF4A R110M mutant expressed in Escherichia coli BL21 CodonPlus cells using ATP and yeast RNA as substrate preincubated with enzyme for 20 mins followed by susbtrate addition and measured after 4 hrs by Malachite green ATPase assay
Eukaryotic initiation factor 4A-I (Homo sapiens, UniProt P60842, R110M), sequence (P60842 2-406 R110M limits assumed): as the sequence (P60842 2-406 T158V limits assumed) above, with R109M, V157T counted along it

[17] = target: T1, Eukaryotic initiation factor 4A-I; test: Uncompetitive inhibition of human recombinant N-terminal His6-tagged eIF4A expressed in Escherichia coli BL21 CodonPlus cells assessed as decrease in Km and Vmax of ATP using varying concentrations of ATP and 250 ug/ml yeast RNA as substrate preincubated with enzyme for 20 mins followed by substrate addition and measured after 1 to 7 hrs by Malachite green ATPase assay; details: time 80-440 min
[18] = tested on: Eukaryotic initiation factor 4A-I (Homo sapiens), P60842 [R110K]; test: Inhibition of human recombinant N-terminal His6-tagged eIF4A R110K mutant expressed in Escherichia coli BL21 CodonPlus cells using ATP and yeast RNA as substrate preincubated with enzyme for 20 mins followed by susbtrate addition and measured after 4 hrs by Malachite green ATPase assay; details: time 260.0 min
Eukaryotic initiation factor 4A-I (Homo sapiens), P60842 [R110K], sequence (P60842 whole entry R110K): as the sequence (P60842 whole entry) above, with R110K counted along it

[19] = target: Eukaryotic initiation factor 4A-I (Homo sapiens, UniProt P60842, R110L); test: Inhibition of human recombinant N-terminal His6-tagged eIF4A R110L mutant expressed in Escherichia coli BL21 CodonPlus cells using ATP and yeast RNA as substrate preincubated with enzyme for 20 mins followed by susbtrate addition and measured after 4 hrs by Malachite green ATPase assay
Eukaryotic initiation factor 4A-I (Homo sapiens, UniProt P60842, R110L), sequence (P60842 2-406 R110L limits assumed): as the sequence (P60842 2-406 T158V limits assumed) above, with R109L, V157T counted along it

IC50 [1]: > 50 µM
IC50 [2]: 6.58 µM
IC50 [3]: > 50 µM
IC50 [4]: > 50 µM
Activity [5]: Dose-Dependent Effect
inhibition (Reticulocyte [6]): inactive
inhibition [7]: inactive
inhibition [8]: Active
inhibition [9]: Active
IC50 [10]: > 50 µM
Activity [11]: Active
inhibition [12]: Active
IC50 [13]: > 50 µM
inhibition [14]: Active
inhibition (Reticulocyte [15]): Active
IC50 [16]: > 50 µM
inhibition [17]: Active
inhibition [18]: Active
IC50 [19]: > 50 µM
SMILES: CCCCc1ccc(-c2ccc(-c3cc(C(=O)O)c4cc([N+](=O)[O-])ccc4n3)o2)cc1
EC50 (BJAB): 0.463 µM
